Results as given in PubChem BioAssay (NCI).
Several values for one entry are separate records, joined by “and”; a condition that tells them apart may be missing. Identical values can stand only once.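 Each compound was tested at five concentrations against cells in 96-well plates for 48 hours. GI50 marks 50% less growth. The concentration for full growth arrest is given as TGI.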

How the values were obtained:
Test in all cases: NCI tumour cell line growth inhibition, 48 h
[1] = test system: OVCAR-5 ovarian
[2] = test system: SNB-19 CNS
[3] = test system: RPMI-8226 leukemia
[4] = test system: SK-MEL-2 melanoma
[5] = test system: UACC-62 melanoma
[6] = test system: U251 CNS
[7] = test system: CCRF-CEM leukemia
[8] = test system: SF-295 CNS
[9] = test system: HT29 colon
[10] = test system: NCI/ADR-RES ovarian

| Structure (SMILES) | GI50 [1] | TGI [1] | GI50 [2] | TGI [2] | GI50 [3] | TGI [3] | GI50 [4] | TGI [4] | GI50 [5] | TGI [5] | GI50 [6] | TGI [6] | GI50 [7] | TGI [7] | GI50 [8] | TGI [8] | GI50 [9] | TGI [9] | GI50 [10] | TGI [10] |
| --- | --- | --- | --- | --- | --- | --- | --- | --- | --- | --- | --- | --- | --- | --- | --- | --- | --- | --- | --- | --- |
| COc1ccc(/C=C(\C#N)c2cc3ccccc3n2C)cc1 | 0.852 µM | > 100 µM | 0.492 µM | > 100 µM | 0.388 µM | > 100 µM | 0.471 µM | > 100 µM | 0.504 µM | > 100 µM | 0.493 µM | > 100 µM | 0.338 µM | > 100 µM | 0.355 µM | > 28.2 µM | 0.347 µM | > 34.1 µM | 0.319 µM | > 28.7 µM |
| O=[As](O)(O)c1ccc(Cc2ccc([As](=O)(O)O)cc2)cc1 | – | 4.65 µM | – | 2.65 µM | – | 0.984 µM | – | 2.87 µM | – | 2.62 µM | – | 1.51 µM | – | 1.05 µM | – | 8.46 µM | – | 2.38 µM | – | 6.79 µM |
| O=[N+]([O-])c1ccc2c(N=Nc3c(O)ccc4ccccc34)c(O)cc(S(=O)(=O)O)c2c1 | 70.3 µM | 50 µM and > 100 µM | 19.3 µM | 50 µM and > 100 µM | 67.1 µM | 50 µM and > 100 µM | 40.9 µM | 50 µM and > 100 µM | 34.2 µM | 50 µM and > 100 µM | 12.5 µM | 50 µM and > 100 µM | 19.8 µM | 50 µM and > 100 µM | 29.5 µM | 50 µM and > 100 µM | 49.6 µM | 50 µM and > 100 µM | 40.6 µM | 33.4 µM and > 100 µM |
| CCNCC(O)c1ccc(N)c([N+](=O)[O-])c1 (centres undefined) | – | > 100 µM | – | > 100 µM | – | > 100 µM | – | > 100 µM | – | > 100 µM | – | > 100 µM | – | > 100 µM | – | > 100 µM | – | > 100 µM | – | > 100 µM |
| O=C(/C=C\c1ccnc2ccccc12)c1ccc([N+](=O)[O-])cc1 | > 60.6 µM | > 100 µM | 14.8 µM | > 68.3 µM | 1.87 µM | 4.6 µM | > 100 µM | > 100 µM | 12.5 µM | > 86.3 µM | 10.6 µM | 41.6 µM | 3.41 µM | > 48.1 µM | 23.4 µM | > 100 µM | 2.36 µM | 5.37 µM | 8.68 µM | > 100 µM |
| Cc1nc(NC(=O)N2CCC[C@H]2C(N)=O)sc1-c1ccnc(C(C)(C)C(F)(F)F)c1 | 0.776 µM and 1.02 µM | 57.4 µM and > 10 µM | 8.6 µM and > 10 µM | 66.2 µM and > 10 µM | 16.1 µM and > 10 µM | 58.5 µM and > 10 µM | 6.94 µM and > 10 µM | 24.1 µM and > 10 µM | 3.18 µM and 3.05 µM | 18.7 µM and > 10 µM | 3.22 µM and 5.54 µM | 18.7 µM and > 10 µM | 5.13 µM and 5.71 µM | 75.4 µM and > 10 µM | 2.79 µM and 4.1 µM | 16 µM and > 10 µM | 0.488 µM and 0.477 µM | 20.8 µM and > 10 µM | 14.6 µM and > 10 µM | 85.8 µM and > 10 µM |
| CCNCCNc1cc(-c2ccc(F)cc2)c(C#N)c2nc3ccccc3n12 | 4.45 µM | 15.9 µM | 4.94 µM | 17.8 µM | 2.86 µM | 7.58 µM | 14.2 µM | 28.3 µM | 1.9 µM | 3.95 µM | 2.41 µM | 5.05 µM | 2.77 µM | 6.52 µM | 1.8 µM | 3.79 µM | 3.06 µM | 11 µM | 6.34 µM | 25.1 µM |
| Cn1cnc([N+](=O)[O-])c1Sc1ncnc2c1ncn2C1OC(CO)C(O)C1O (centres undefined) | 42 µM | > 100 µM | > 100 µM | > 100 µM | 2.93 µM | > 100 µM | 8.9 µM | > 100 µM | 5.98 µM | > 100 µM | 8.79 µM | > 100 µM | 21.7 µM | > 100 µM | 2.95 µM | > 100 µM | 7.3 µM | > 100 µM | 4.84 µM | > 100 µM |
| CCCC[C@@H](COC(=O)N(Cc1cccs1)Cc1cccs1)NC(=O)N[C@@H](CC(=O)OC)c1ccc2c(c1)OCO2 | > 100 µM | > 100 µM | – | – | 8.11 µM | > 100 µM | > 100 µM | > 100 µM | > 100 µM | > 100 µM | > 100 µM | > 100 µM | > 100 µM | > 100 µM | > 100 µM | > 100 µM | > 100 µM | > 100 µM | > 100 µM | > 100 µM |
| O=C(/C=C/c1ccco1)Nc1ncc(Cc2ccc(F)cc2)s1 | 0.244 µM | > 100 µM | 0.112 µM | > 100 µM | 0.0721 µM | > 100 µM | 0.115 µM | > 100 µM | 0.0555 µM | > 100 µM | 0.0615 µM | > 100 µM | 0.0614 µM | > 100 µM | 0.0709 µM | > 100 µM | 0.0366 µM | > 100 µM | 0.0445 µM | 4.02 µM |
| Cn1c(O)c(C(=O)Nc2ccc([N+](=O)[O-])cc2)c(=O)n(C)c1=S | – | 16.4 µM | – | 10.1 µM | – | > 100 µM | – | 5.53 µM | – | 3.64 µM | – | 7.67 µM | – | > 100 µM | – | 4.86 µM | – | 8.33 µM | – | 11 µM |
| CC1(C)OCN(c2ccc(Cl)cc2)Cn2c1nc1ccccc12 | – | > 100 µM | – | > 100 µM | – | > 100 µM | – | > 100 µM | – | 5.58 µM | – | > 100 µM | – | > 100 µM | – | > 100 µM | – | > 100 µM | – | > 100 µM |
| N#Cc1nc(-c2ccccc2)oc1S(=O)(=O)N1CCOCC1 | 13.6 µM | 27.6 µM | 28 µM | > 100 µM | 2.58 µM | 7.89 µM | 12.7 µM | 29.8 µM | 9.33 µM | 21.4 µM | 17.7 µM | 42.2 µM | 1.73 µM | 14.6 µM | 38.2 µM | > 100 µM | 4.82 µM | 25.4 µM | 14.8 µM | 84.2 µM |
| CC(=O)/C(C)=N/N/C(N)=N\S(=O)(=O)c1cc(C(=O)Nc2ccccc2)c(Cl)cc1SCc1ccccc1 | > 100 µM | > 100 µM | > 100 µM | > 100 µM | 7.01 µM | > 100 µM | 43.5 µM | > 100 µM | 16.4 µM | > 100 µM | 27.7 µM | > 100 µM | 98.5 µM | > 100 µM | 43.1 µM | > 100 µM | 61.6 µM | > 100 µM | > 100 µM | > 100 µM |
| COc1ccc(/C=C\c2cc(OC)c(OC)c(OC)c2)c(NS(=O)(=O)c2ccc(C)cc2)c1O | 0.15 µM | > 100 µM | 0.0549 µM | > 100 µM | 0.0502 µM | 23.9 µM | 1.45 µM | > 100 µM | 0.0428 µM | > 100 µM | 0.0418 µM | > 100 µM | 0.0407 µM | > 100 µM | 0.0509 µM | – | 0.813 µM | > 45.7 µM | 0.169 µM | 14.7 µM |
| O=Nc1c(O)ccc2ccccc12 | 1.83 µM | 3.44 µM | 14.7 µM | 28.2 µM | 2.64 µM | 7.21 µM | 2.12 µM | 4.36 µM | 1.86 µM | 3.83 µM | 2.17 µM | 5.52 µM | 3.16 µM | 11.4 µM | 11.7 µM | 24.4 µM | 3.41 µM | 10.7 µM | 2.92 µM | 9.21 µM |
| CCS/C(Nc1ccccc1)=C(\C#N)C(=O)Nc1ccc(OC)cc1 | 5.52 µM | > 100 µM | 3.55 µM | > 100 µM | 2.52 µM | > 100 µM | 3.01 µM | > 100 µM | 2.58 µM | > 100 µM | 4.42 µM | > 100 µM | 1.83 µM | > 100 µM | 3.06 µM | > 100 µM | 3.47 µM | 33.3 µM | 2.62 µM | > 100 µM |
| c1ccc(-c2nc(N3CCNCC3)c3nc(-c4ccccc4)oc3n2)cc1 | 1.7 µM | 3.15 µM | 1.74 µM | 3.34 µM | 2.08 µM | 4.64 µM | 1.91 µM | 3.74 µM | 1.78 µM | 3.23 µM | – | – | 1.38 µM | 3.83 µM | 1.86 µM | 3.38 µM | 1.84 µM | 3.85 µM | 1.87 µM | 3.69 µM |
| COc1ccccc1-n1c(SCc2cc(OC)c(OC)c(OC)c2)nc2ccc(Cl)cc2c1=O | 7.47 µM | > 100 µM | – | – | 3.71 µM | > 100 µM | 4.88 µM | > 100 µM | 3.04 µM | > 100 µM | 3.72 µM | > 100 µM | 3.07 µM | > 100 µM | – | – | 2.91 µM | > 100 µM | 2.25 µM | > 100 µM |
| COc1ccc([C@H]2O[C@@H](CO)C[C@]2(O)c2ccc(OC)cc2)cc1 | > 100 µM | > 100 µM | > 100 µM | > 100 µM | > 100 µM | > 100 µM | – | – | > 100 µM | > 100 µM | > 100 µM | > 100 µM | > 100 µM | > 100 µM | > 100 µM | > 100 µM | > 100 µM | > 100 µM | > 100 µM | > 100 µM |
